Data published in US20040229268A1, “Method and kit for identifying antibiotic-resistant microorganisms” (priority 2003, published 2004).

Test system: rRNA/rDNA (pan-bacterial probe); mecA target sequence
Assay: HPA after base treatment of specimen or synthetic target (Example 3)
Assay type: binding, S. aureus
Procedure: The effect of base treatment on a S. aureus specimen (#102) was evaluated using the pan-bacterial probe reagent. A pelleted sample of the specimen was suspended in 120 μl of lysis buffer and lysed by treatment for 20 minutes in a heat block set at 110° C. A 50 μl aliquot of the lysed specimen was treated with 50 μl of a 0.4 N LiOH solution at 55° C. for 10 minutes, and then neutralized with the addition of 50 μl of 0.4 N HCl and buffered with 50 μl of a 1× hybridization buffer (0.6 M LiCl, 1% lithium lauryl sulfate, 10 mM EDTA, 10 mM EGTA, 50 mM lithium succinate, pH 5.5). The treated sample was hybridized with the AE-labeled pan-bacterial probe by incubating at 55° C. for 1 hour. An HPA assay to detect specific probe hybrids was carried out using standard procedures that will be familiar to those having an ordinary level of skill in the art. A control sample consisted of 50 μl of the lysed specimen and volumes of hydrolysis, neutralization and buffered solutions equivalent to those of the treated sample.
For example, the effect of base treatment with 0.8 N LiOH for 10 minutes at 55° C. was assessed using AE-probe 1. For these treatments, an equal volume of 0.8 N LiOH was added to the sample, and the reaction mixtures were neutralized with the addition of an equivalent volume of 0.8 N HCl prior to buffering and assaying by HPA. 300 μl aliquots of each reaction mixture were read in the luminometer. These procedures employed a single-stranded DNA oligonucleotide having the same sequence that was present in the target bacteria, and that was fully complementary to the hybridization probe undergoing testing, as synthetic target.

GGTATGTGGAAGTTAGATTGGGATCATAGCG (AE label, linker between 13 and 14, chemistry not fully specified; listed as Staphylococcus aureus) [Probe 1]
AE-probe 1 Signal (RLU) (#148, Control (no base treatment)): 34677 RLU | AE-probe 1 Signal (RLU) (#148, base treated (0.8 N LiOH, 10 minutes, 55° C.)): 42627 RLU | AE-probe 1 Signal (RLU) (Synthetic target + #148, Control): 53367 RLU | AE-probe 1 Signal (RLU) (Synthetic target + #148, base treated): 58565 RLU | AE-probe 1 Signal (RLU) (Synthetic target, Control (no base treatment)): 22195 RLU | AE-probe 1 Signal (RLU) (Synthetic target, base treated (0.8 N LiOH, 10 minutes, 55° C.)): 21283 RLU
